ChEMBL document CHEMBL4765295, “Synthesis, pharmacological profile and 2D-QSAR studies of curcumin-amino acid conjugates as potential drug candidates” (Eur J Med Chem, 2020)
“And” between values parts separate entries of the source, which are not always exact repeats. Identical values can stand only once.

Key:
Salmonella typhimurium = test: Antibacterial activity against Salmonella typhimurium ATCC 19430 incubated for 18 hrs by agar dilution assay; format: functional, Salmonella enterica subsp. enterica serovar Typhimurium; conditions: Salmonella enterica
Rattus norvegicus [1] = test: Antiinflammatory activity in Wistar rat model of carrageenan-induced paw edema assessed as reduction in thickness of paw edema at 10 mg/kg, ip pretreated for 1 hr followed by carrageenan challenge and measured after 2 hrs (reference value: 2.06 +/-0.09 mm); format: functional; conditions: time 3 hrs
Rattus norvegicus [2] = test: Antiinflammatory activity in Wistar rat model of carrageenan-induced paw edema assessed as reduction in thickness of paw edema at 10 mg/kg, ip pretreated for 1 hr followed by carrageenan challenge and measured after 1 hr (reference value: 2.41 +/-0.05 mm); format: functional; conditions: time 1 hr after carrageenan
Pseudomonas aeruginosa = test: Antibacterial activity against Pseudomonas aeruginosa ATCC 27853 incubated for 18 hrs by agar dilution assay; format: functional
Peritoneal macrophage [3] = test: Antiinflammatory activity in […] mouse Peritoneal macrophages assessed as inhibition of LPS-induced NO production at 10 uM preincubated for 1 hr followed by LPS stimulation measured after 24 hrs by Griess method relative to control (reference value: 0.0 %); format: functional; design: scale not given: the % may be the effect or the level left; conditions: time 25 hrs
Splenocyte [4] = test: Immunomodulatory activity in Swiss albino mouse splenocytes assessed as cell viability at 10 uM by measuring stimulation index incubated for 72 hrs in presence of mitogenic stimulus phytohaemagglutinin by MTT assay (reference value: 1.00 +/- 0.24); format: functional
Rattus norvegicus [5] = test: Antiinflammatory activity in Wistar rat model of carrageenan-induced paw edema assessed as reduction in thickness of paw edema at 10 mg/kg, ip pretreated for 1 hr followed by carrageenan challenge and measured after 3 hrs (reference value: 1.79 +/-0.07 mm); format: functional; conditions: time 4 hrs
Peritoneal macrophage [6] = test: Antiinflammatory activity in […] mouse Peritoneal macrophages assessed as reduction in LPS-induced NO production by measuring reduction in stimulation index at 10 uM preincubated for 1 hr followed by LPS stimulation measured after 24 hrs by Griess method (reference value: 27.31 +/- 2.56 uM); format: functional; conditions: time 25 hrs
Rattus norvegicus [7] = test: Antiinflammatory activity in Wistar rat model of carrageenan-induced paw edema assessed as reduction in thickness of paw edema at 10 mg/kg, ip pretreated for 1 hr followed by carrageenan challenge and measured after 4 hrs (reference value: 1.40 +/-0.10 mm); format: functional; conditions: time 5 hrs
Rattus norvegicus [8] = test: Anti-inflammatory activity in Wistar rat assessed as inhibition of carrageenan-induced paw edema at 10 mg/kg, ip pretreated for 1 hr followed by carrageenan challenge and measured after 1 hr relative to control (reference value: 0.00 +/-0.02 %); format: functional; conditions: time 2 hrs
PC-3 = test: Antiproliferative activity against human PC3 cells assessed as inhibition of cell growth after 72 hrs by MTT assay; format: functional, cell-based; conditions: PC-3, 72 h
Rattus norvegicus [9] = test: Anti-inflammatory activity in Wistar rat assessed as inhibition of carrageenan-induced paw edema at 10 mg/kg, ip pretreated for 1 hr followed by carrageenan challenge and measured after 4 hr relative to indomethacin; format: functional; conditions: time 5 hrs
Candida albicans = test: Antifungal activity against Candida albicans incubated for 18 to 24 hrs by CLSI method; format: functional; conditions: time 18-24 hrs
Streptococcus pyogenes = test: Antibacterial activity against Streptococcus pyogenes ATCC 19615 incubated for 18 hrs by agar dilution method; format: functional
Rattus norvegicus [10] = test: Anti-inflammatory activity in Wistar rat assessed as inhibition of carrageenan-induced paw edema at 10 mg/kg, ip pretreated for 1 hr followed by carrageenan challenge and measured after 4 hr relative to control (reference value: 0.00 +/-0.4 %); format: functional; conditions: time 5 hrs
Splenocyte [11] = test: Immunomodulatory activity in Swiss albino mouse splenocytes assessed as cell viability at 10 uM by measuring inhibition of stimulation index incubated for 72 hrs in presence of mitogenic stimulus phytohaemagglutinin by MTT assay relative to indomethacin; format: functional; conditions: read-out: Activity
Rattus norvegicus [12] = test: Anti-inflammatory activity in Wistar rat assessed as inhibition of carrageenan-induced paw edema at 10 mg/kg, ip pretreated for 1 hr followed by carrageenan challenge and measured after 3 hr relative to control (reference value: 0.00 +/-0.1 %); format: functional; conditions: time 4 hrs
Rattus norvegicus [13] = test: Anti-inflammatory activity in Wistar rat assessed as inhibition of carrageenan-induced paw edema at 10 mg/kg, ip pretreated for 1 hr followed by carrageenan challenge and measured after 2 hr relative to control (reference value: 0.00 +/-0.03 %); format: functional; conditions: time 3 hrs
Rattus norvegicus [14] = test: Antiinflammatory activity in Wistar rat model of carrageenan-induced paw edema assessed as reduction in thickness of paw edema at 10 mg/kg, ip pretreated for 1 hr followed by carrageenan challenge and measured after 24 hrs (reference value: 0.83 +/-0.08 mm); format: functional; conditions: time 25 hrs
Rattus norvegicus [15] = test: Anti-inflammatory activity in Wistar rat assessed as inhibition of carrageenan-induced paw edema at 10 mg/kg, ip pretreated for 1 hr followed by carrageenan challenge and measured after 24 hr relative to control (reference value: 0.00 +/-0.3 %); format: functional; conditions: time 25 hrs
A549 = test: Antiproliferative activity against human A549 cells assessed as inhibition of cell growth after 72 hrs by MTT assay; format: functional, cell-based; conditions: A549, 72 h
MCF7 = test: Antiproliferative activity against human MCF7 cells assessed as inhibition of cell growth after 72 hrs by MTT assay; format: functional, cell-based; conditions: MCF7, 72 h
Staphylococcus aureus = test: Antibacterial activity against Staphylococcus aureus ATCC 25923 incubated for 18 hrs by agar dilution method; format: functional
Mus musculus [16] = test: Analgesic activity in albino mouse assessed as protection at 10 mg/kg, ip measured after 60 mins by hot plate test (reference value: 0 %); format: functional; conditions: 1 h
Mus musculus [17] = test: Analgesic activity in albino mouse assessed protection against acetic acid-induced abdominal writhing at 10 mg/kg, ip pretreated for 1 hr followed by acetic acid challenge and measured starting 5 mins post acetic acid challenge for 10 mins relative to control (reference value: 0 %); format: functional; conditions: time 75 min, 1.25 h
[18] = Ulcerogenic activity in fasted albino mouse assessed as average number of ulcers in gastric mucosa at 10 mg/kg, po for 3 days (reference value: 0); format: toxicity, organism-based; conditions: in vivo, 72 h, time 3 day
[19] = Ulcerogenic activity in fasted albino mouse assessed as ulcer index in gastric mucosa at 10 mg/kg, po for 3 days (reference value: 0); format: toxicity, organism-based; conditions: in vivo, 72 h, time 3 day
[20] = Ulcerogenic activity in fasted albino mouse assessed as incidence of gastric ulceration at 10 mg/kg, po for 3 days (reference value: 0 %); format: toxicity, organism-based; conditions: in vivo, 72 h, time 3 day
Mus musculus [21] = test: Analgesic activity in albino mouse assessed as forepaw licking/jumping latency time at 10 mg/kg, ip measured after 120 mins by hot plate test (reference value: 2.62 +/- 0.06 sec); format: functional; conditions: 2 h
Mus musculus [22] = test: Analgesic activity in albino mouse assessed protection against acetic acid-induced abdominal writhing at 10 mg/kg, ip pretreated for 1 hr followed by acetic acid challenge and measured starting 5 mins post acetic acid challenge for 10 mins relative to indomethacin; format: functional; conditions: time 75 min, 1.25 h
Mus musculus [23] = test: Analgesic activity in albino mouse assessed as protection at 10 mg/kg, ip measured after 120 mins by hot plate test (reference value: 0 %); format: functional; conditions: 2 h
Mus musculus [24] = test: Analgesic activity in albino mouse assessed as forepaw licking/jumping latency time at 10 mg/kg, ip measured after 30 mins by hot plate test (reference value: 5.02 +/- 0.09 sec); format: functional; conditions: 0.5 h
[25] = Ulcerogenic activity in fasted albino mouse assessed as average severity of ulcers in gastric mucosa at 10 mg/kg, po for 3 days (reference value: 0); format: toxicity, organism-based; conditions: in vivo, 72 h, time 3 day
[26] = Toxicity in albino mouse assessed as induction of toxic symptoms at 50 to 100 mg/kg, ip measured after 24 hrs; format: organism-based; conditions: in vivo, dose 50-100 mg/kg
Mus musculus [27] = test: Analgesic activity in albino mouse assessed as protection at 10 mg/kg, ip measured after 90 mins by hot plate test (reference value: 0 %); format: functional; conditions: 1.5 h
Mus musculus [28] = test: Analgesic activity in albino mouse assessed reduction in acetic acid-induced abdominal writhing by measuring writing reflex at 10 mg/kg, ip pretreated for 1 hr followed by acetic acid challenge and measured starting 5 mins post acetic acid challenge for 10 mins (reference value: 42.4 +/- 1.02); format: functional; conditions: time 75 min, 1.25 h
Mus musculus [29] = test: Analgesic activity in albino mouse assessed as forepaw licking/jumping latency time at 10 mg/kg, ip measured after 60 mins by hot plate test (reference value: 3.42 +/- 0.03 sec); format: functional; conditions: 1 h
Mus musculus [30] = test: Analgesic activity in albino mouse assessed as protection at 10 mg/kg, ip measured after 30 mins by hot plate test (reference value: 0 %); format: functional; conditions: 0.5 h
Mus musculus [31] = test: Analgesic activity in albino mouse assessed as protection at 10 mg/kg, ip measured after 120 mins by hot plate test relative to indomethacin; format: functional; conditions: 2 h
Mus musculus [32] = test: Analgesic activity in albino mouse assessed as forepaw licking/jumping latency time at 10 mg/kg, ip measured after 90 mins by hot plate test (reference value: 2.72 +/- 0.01 sec); format: functional; conditions: 1.5 h

COc1cc(/C=C/C(=O)/C=C(O)/C=C/c2ccc(OC(=O)[C@H](C)N)c(OC)c2)ccc1OC(=O)[C@H](C)N.Cl.Cl
MIC (Salmonella typhimurium): 0.5 µg/mL and 0.857 µM
Activity (Rattus norvegicus [1]): 1.19 mm
Activity (Rattus norvegicus [2]): 1.51 mm
MIC (Pseudomonas aeruginosa): 0.25 µg/mL and 0.428 µM
Activity (Peritoneal macrophage [3]): 46.24%
Activity_index (Splenocyte [4]): 1.14
Activity (Rattus norvegicus [5]): 0.85 mm
Activity (Peritoneal macrophage [6]): 14.68 µM
Activity (Rattus norvegicus [7]): 0.47 mm
inhibition in vivo at 10 mg/kg (Rattus norvegicus [8]): 37%
IC50 (PC-3): 31.5 µM
inhibition in vivo at 10 mg/kg (Rattus norvegicus [9]): 76%
MIC (Candida albicans): 0.5 µg/mL and 0.857 µM
MIC (Streptococcus pyogenes): 0.5 µg/mL and 0.857 µM
inhibition in vivo at 10 mg/kg (Rattus norvegicus [10]): 66%
viability at 10 µM (Splenocyte [11]): 106%
inhibition in vivo at 10 mg/kg (Rattus norvegicus [12]): 53%
inhibition in vivo at 10 mg/kg (Rattus norvegicus [13]): 42%
Activity (Rattus norvegicus [14]): 0.7 mm
inhibition in vivo at 10 mg/kg (Rattus norvegicus [15]): 16%
IC50 (A549): 21.7 µM
IC50 (MCF7): 10.7 µM
MIC (Staphylococcus aureus): 0.5 µg/mL and 0.857 µM

COc1cc(/C=C/C(=O)/C=C(O)/C=C/c2ccc(OC(=O)CNC(=O)OCC3c4ccccc4-c4ccccc43)c(OC)c2)ccc1OC(=O)CNC(=O)OCC1c2ccccc2-c2ccccc21
MIC (Salmonella typhimurium): 1 µg/mL and 1.08 µM
Activity (Rattus norvegicus [1]): 0.78 mm
Activity (Rattus norvegicus [2]): 1.45 mm
MIC (Pseudomonas aeruginosa): 1 µg/mL and 1.08 µM
Activity (Peritoneal macrophage [3]): 31.43%
Activity (Mus musculus [16]): 19.3%
Activity (Mus musculus [17]): 57.5%
Activity [18]: 0
Activity_index (Splenocyte [4]): 1.76
UI [19]: 0
Activity (Rattus norvegicus [5]): 0.47 mm
Activity (Peritoneal macrophage [6]): 18.73 µM
Activity [20]: 0%
Time (Mus musculus [21]): 3.72 s
Activity (Rattus norvegicus [7]): 0.29 mm
inhibition in vivo at 10 mg/kg (Rattus norvegicus [8]): 40%
Activity (Mus musculus [22]): 93.3%
inhibition in vivo at 10 mg/kg (Rattus norvegicus [9]): 91%
Activity (Mus musculus [23]): 42%
MIC (Candida albicans): 2 µg/mL and 2.16 µM
MIC (Streptococcus pyogenes): 1 µg/mL and 1.08 µM
inhibition in vivo at 10 mg/kg (Rattus norvegicus [10]): 79%
viability at 10 µM (Splenocyte [11]): 68.8%
inhibition in vivo at 10 mg/kg (Rattus norvegicus [12]): 74%
Time (Mus musculus [24]): 5.96 s
inhibition in vivo at 10 mg/kg (Rattus norvegicus [13]): 62%
Activity [25]: 0
Activity [26]: Non-Toxic
Activity (Mus musculus [27]): 40.4%
Activity (Rattus norvegicus [14]): 0.15 mm
Activity (Mus musculus [28]): 18
Time (Mus musculus [29]): 4.08 s
inhibition in vivo at 10 mg/kg (Rattus norvegicus [15]): 82%
Activity (Mus musculus [30]): 18.7%
Activity (Mus musculus [31]): 100%
MIC (Staphylococcus aureus): 1 µg/mL and 1.08 µM
Time (Mus musculus [32]): 3.82 s

COc1cccc2c1C(=O)c1c(O)c3c(c(O)c1C2=O)C[C@@](O)(C(=O)CO)C[C@@H]3O[C@H]1C[C@H](N)[C@H](O)[C@H](C)O1 [DOXORUBICIN]
IC50 (PC-3): 38 µM
